Assay results reported in ChEMBL document CHEMBL4418480, “Methods and compositions for modulating rho-mediated gene transcription” (2012).
Activity calls are given as the source filed them. The rule behind the calls is not given here.

Legend:
[1] = Inhibition of rho-mediated gene transcription in human PC3 cells transfected with Galpha12QL activator incubated for 19 hrs by SRE.L-firefly luciferase based dual luciferase reporter gene assay; assay type: cell-based; details: PC-3, 19 h
Homo sapiens [2] = organism: Homo sapiens; experiment: Inhibition of rho-mediated gene transcription in human PC3 cells transfected with Galpha12QL activator at 100 uM incubated for 19 hrs by SRE.L-firefly luciferase based dual luciferase reporter gene assay relative to control; assay type: cell-based
[3] = Inhibition of nonspecific gene transcription in human PC3 cells transfected with Galpha12QL activator at 10 uM incubated for 19 hrs by PRL-TK luciferase based dual luciferase reporter gene assay; assay type: cell-based, PC-3
Homo sapiens [4] = organism: Homo sapiens; experiment: Inhibition of rho-mediated gene transcription in human PC3 cells transfected with Galpha12QL activator at 10 uM incubated for 19 hrs by SRE.L-firefly luciferase based dual luciferase reporter gene assay relative to control; assay type: cell-based
[5] = Inhibition of nonspecific gene transcription in human PC3 cells transfected with Galpha12QL activator at 100 uM incubated for 19 hrs by PRL-TK luciferase based dual luciferase reporter gene assay; assay type: cell-based, PC-3
WI-38 = experiment: Antiproliferative activity against human WI38 cells assessed as inhibition of LPA-stimulated cell proliferation at 0.3 mmol/L and measured on day 8 by WST1 based assay; details: wi-38, 300 µM
SK-MEL-147 = experiment: Antiproliferative activity against human SK-MEL-147 cells assessed as inhibition of LPA-stimulated cell proliferation at 0.3 mmol/L and measured on day 8 by WST1 based assay; assay type: functional
A-375 = experiment: Antiproliferative activity against human A375 cells assessed as inhibition of LPA-stimulated cell proliferation at 0.3 mmol/L and measured on day 8 by WST1 based assay; assay type: functional
PC-3 [6] = experiment: Antiproliferative activity against human PC3 cells assessed as inhibition of LPA-stimulated cell proliferation incubated for 27 hrs by BrdUrd incorporation assay; assay type: functional, cell-based
SK-MEL-28 = experiment: Antiproliferative activity against human SK-MEL-28 cells assessed as inhibition of LPA-stimulated cell proliferation at 0.3 mmol/L and measured on day 8 by WST1 based assay; assay type: functional
PC-3 [7] = experiment: Cytotoxicity against human PC3 cells assessed as inhibition of cell cell viability at 10 uM incubated for 19 hrs by WST1 based assay relative to control; assay type: functional; details: for inhibition at 10 µM: PC-3, 19 h
PC-3 [8] = experiment: Antiinvasive activity against human PC3 cells assessed as inhibition of LPA-stimulated cell invasion at 3 umol/L by matrigel based assay; assay type: functional
Homo sapiens [9] = organism: Homo sapiens; experiment: Antiproliferative activity against human A375M2 cells assessed as inhibition of LPA-stimulated cell proliferation at 0.3 mmol/L and measured on day 8 by WST1 based assay; assay type: functional
PC-3 [10] = experiment: Cytotoxicity against human PC3 cells assessed as inhibition of cell cell viability at 100 uM incubated for 19 hrs by WST1 based assay relative to control; assay type: functional; details: for inhibition at 100 µM: PC-3, 19 h
SK-OV-3 = experiment: Antiinvasive activity against human SKOV3 cells assessed as inhibition of LPA-stimulated cell invasion at 100 ng/ml by matrigel based assay; assay type: functional

Structure (SMILES)	IC50 [1] [µM]	inhibition (Homo sapiens [2])	inhibition at 19 h, 10 µM [3] [%]	inhibition (Homo sapiens [4])	inhibition at 19 h, 100 µM [5] [%]	also measured
O=C(CONC(=O)c1ccc(C(F)(F)F)cc1)Nc1ccc(Cl)cc1	29	91%	6	26%	0	–
CC(ONC(=O)c1cc(C(F)(F)F)cc(C(F)(F)F)c1)C(=O)Nc1ccc(Cl)cc1 (configuration not stated)	–	–	48	74%	–	Activity (WI-38): Non-Toxic; inhibition (SK-MEL-147): Active; inhibition (A-375): Active; inhibition (PC-3 [6]): Active; inhibition (SK-MEL-28): Active; inhibition at 10 µM (PC-3 [7]): 44%; inhibition (PC-3 [8]): Active; inhibition (Homo sapiens [9]): Active
O=C(CCCCNC(=O)c1cc(C(F)(F)F)cc(C(F)(F)F)c1)Nc1ccc(Cl)cc1	> 100	12%	0	0%	10	inhibition at 100 µM (PC-3 [10]): 0%; inhibition at 10 µM (PC-3 [7]): 0%
O=C(CC1CCCCN1C(=O)c1cc(C(F)(F)F)cc(C(F)(F)F)c1)Nc1ccc(Cl)cc1 (configuration not stated)	–	–	0	–	–	–
O=C(CONC(=O)c1cccc(C(F)(F)F)c1)Nc1ccc(Cl)cc1	27	86%	5	25%	19	–
CC(=O)O[C@H]1C(=O)[C@@]2(C)[C@H]([C@H](OC(=O)c3ccccc3)[C@]3(O)C[C@H](OC(=O)[C@H](O)[C@@H](NC(=O)c4ccccc4)c4ccccc4)C(C)=C1C3(C)C)[C@]1(OC(C)=O)CO[C@@H]1C[C@@H]2O	–	–	–	–	–	inhibition (SK-OV-3): Active
O=C(Nc1ccccc1C(=O)Nc1ccc(Cl)cc1)c1cc(C(F)(F)F)cc(C(F)(F)F)c1	–	–	0	–	–	–
CN(CCNC(=O)c1cc(C(F)(F)F)cc(C(F)(F)F)c1)C(=O)c1ccc(Cl)cc1	> 1000	25%	0	20%	10	inhibition at 100 µM (PC-3 [10]): 0%; inhibition at 10 µM (PC-3 [7]): 0%
O=C(CCNC(=O)c1cc(C(F)(F)F)cc(C(F)(F)F)c1)Nc1ccc(Cl)cc1	25 to 38	64 to 66%	–	38 to 44%	15 to 22	inhibition at 100 µM (PC-3 [10]): 6 to 10%
O=C(CONC(=O)c1ccccc1)Nc1ccc(Cl)cc1	> 100	inactive	–	inactive	–	inhibition (PC-3 [10]): inactive; inhibition (PC-3 [7]): inactive
O=C(CONC(=O)c1cc(C(F)(F)F)cc(C(F)(F)F)c1)Nc1ccccc1	36	65%	33	13%	59	–
